According to patent publication US12433875B2, “(R)-4-(1-(6-(4-(trifluoromethyl)benzyl)-6-azaspiro[2.5]octane-5-carboxamido)-cyclopropyl) benzoic acid or its salt also in polymorphic form a for use in the prevention of heterotopic ossification” (ROTTAPHARM BIOTECH S.R.L., priority 2019, dated 2025):

How the values were obtained:
[1] = system: Male Lewis rats (CIA model, heterotopic bone formation); experiment: Collagen Induce Arthritis (CIA) in rats, histological scores; format: in vivo, rat
From the text: Collagen Induce Arthritis (CIA) in rats is among the most common models used to mimic human arthritis and especially Rheumatoid Arthritis (RA). In general the joint response seen in this model is quite similar to that observed in human pathology, in terms of inflammation, bone erosion and cartilage damage. Nevertheless, this model differs from Rheumatoid Arthritis, since it is endowed with a consistent periosteal woven bone formation (immature bone) that is not a usual feature of human RA (maybe, less than 10% of patients have this type of bone reaction). On the contrary, this disordered apposition of new bone is the distinctive feature of heterotopic ossification. Therefore, this model was used to study the effect of the compound of the invention in Pathological heretopic osteogenesis.
Male Lewis rats were immunized by intradermal injection at the base of the tail with an emulsion containing 150 μg of bovine collagen type II (bCII) in complete Freund's adjuvant (CFA) or received an injection with incomplete Freund's adjuvant (sham group). Three weeks after the first immunisation, animals were boosted with the same procedure. Three days after booster injection, arthritis had developed in all animals but the sham group. The administration of the compound (1) Form A started at this time point and lasted for 14 days (once a day, unless otherwise indicated).
The paws were fixed in 10% neutral buffered formalin (Bio-Optica, Milan, Italy) and subsequently decalcified in EDTA for 4 weeks. Samples were dehydrated in an ethanol series and embedded in paraffin. At least three non-consecutive sections for each paw were blindly scored at the level of the tarsus, metatarsus and calcaneus for the following histological features of woven bone. Two independent pathologists performed histopathology on blinded slides. The data of right and left hind limbs were summed for each rat.
In FIG. 3 the dose-response curve for the compound of the invention is reported. the compound was administered once a day for 14 days on the site where the pathological bone formation was expected as induced in the CIA model in rats. The dose were 1 mg/Kg, 3 mg/kg and 10 mg/kg. The data were expressed as the median (boxed area), 95% interquartile range (whiskers), and individual data (symbols) of the histological scores for heterotopic bone formation (osteogenesis) given by two pathologists unaware of the treatment groups on a following scale: 0=absent; 1=mild/focal; 2=moderate/multifocal; 3=severe/multifocal to diffuse. Since arthritis was bilateral, the scores for each rat was the sum of the two leg scores. […] The compound reached the maximal activity at 10 mg/kg.
The data were expressed as the median histological scores for heterotopic bone formation (osteogenesis) as described for FIG. 3. […] As for osteogenesis, the data reported in this graph were the median (boxed area), 95% interquartile range (whiskers), and individual data (symbols) of the histological scores for synovial hyperplasia (oedema) given by two pathologists unaware of the treatment groups on a following scale: 0=normal: 1-2 layers of synovial lining cells, 1=mild: focal to multifocal 3-4 layers of synovial lining cells and/or mild proliferation of subsynovial tissue, 2=moderate: focal to mutlitfocal >4-6 layers of synovial lining cells and/or moderate proliferation of subsynovial tissue, 3=severe: multifocal to diffuse >6-8 layers of synovial lining cells and/or severe proliferation of subsynovial tissue. Since arthritis was bilateral, the scores for each rat is the sum of the two leg scores. This underline a preferential and surprising effect of (R)-4-(1-(6-(4-(trifluoromethyl)benzyl)-6-azaspiro[2.5]octane-5-carboxamido)cyclopropyl)benzoic acid on the heterotopic bone formation, […].
The free acid form has been assayed in the rat CIA model as already described for its sodium salt (Form A). […]

[2] = system: Male DBA/1 mice (CIA model); experiment: CIA in mice, histology of heterotopic bone formation; format: in vivo; conditions: 60 mg/kg once daily for 10 days, FIG. 9
Method: CIA in mice is another very popular translational model to mimic human arthritis. […] Male DBA/1 mice were immunized by intradermal injection at the base of the tail with an emulsion of 200 μg of bCII in CFA containing 3 mg/ml Mycobacterium tuberculosis. Non-immunized mice served as the negative control of disease. Animals were monitored by visual inspection for appearance of peripheral edema. […] Upon onset, animals were recruited and randomized. Recruitment was given a cut-off at day 40. Upon recruitment, arthritis clinical score was assigned, and edema was measured via caliper. Mice were randomized into the following groups: vehicle, 30 mg/kg the form A of the sodium salt of (R)-4-(1-(6-(4-(trifluoromethyl)benzyl)-6-azaspiro[2.5]octane-5-carboxamido)cyclopropyl)benzoic acid, 60 mg/kg the form A of the sodium salt of (R)-4-(1-(6-(4-(trifluoromethyl)benzyl)-6-azaspiro[2.5]octane-5-carboxamido)cyclopropyl)benzoic acid and 60 mg/kg naproxen. Animals received the test drugs once daily for 10 days. Histology was performed as described for rats.

`O=C(O)c1ccc(C2(NC(=O)[C@H]3CC4(CCN3Cc3ccc(C(F)(F)F)cc3)CC4)CC2)cc1` [free acid, (R)-4-(1-(6-(4-(trifluoromethyl)benzyl)-6-azaspiro[2.5]octane-5-carboxamido)cyclopropyl)benzoic acid] was tested, and the “potency in controlling osteogenesis compared with tofacitinib” value ([1]; free acid orally 15 mg/kg once a day vs tofacitinib 5 or 25 mg/kg b.i.d.) was “superior”.

For `COc1ccc2cc([C@H](C)C(=O)O)ccc2c1` [naproxen, reference compound], the “new heterotopic bone formation (histology)” value [2] was “not able to significantly affect new heterotopic bone formation”.

With `CS(=O)(=O)c1ccc(C2=C(c3ccccc3)C(=O)OC2)cc1` [rofecoxib, reference compound] the “control of the inflammatory response (edema; histological scores for synovial hyperplasia)” value ([1]; 15 mg/kg each, FIG. 6b) was “equally effective”.

In the case of `C[C@@H]1CCN(C(=O)CC#N)C[C@@H]1N(C)c1ncnc2[nH]ccc12` [tofacitinib, reference compound], the “effect in controlling osteogenesis relative to the free acid at 15 mg/kg QD” value ([1]; tofacitinib 25 mg/kg b.i.d. (daily dose more than three times higher)) is reported as “reached the same effect in controlling osteogenesis”.
